{"source": "patent US10189840B2", "about": "“Substituted tricyclic heterocyclic compounds” (BRISTOL-MYERS SQUIBB COMPANY, priority 2015, dated 2019)", "data": [{"target": "TNFα (Homo sapiens (Human), UniProt P01375)", "sequence (P01375 77-233)": "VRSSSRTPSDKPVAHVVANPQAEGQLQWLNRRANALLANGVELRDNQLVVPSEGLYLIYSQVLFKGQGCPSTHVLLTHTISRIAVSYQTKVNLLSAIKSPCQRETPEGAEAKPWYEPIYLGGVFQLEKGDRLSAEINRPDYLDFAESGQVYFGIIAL", "assay": "TNF induced HEK-Blue assay", "format": "cell-based", "conditions": "TNFα 0.5 ng/ml; HEK-Blue-CD40L cells, NF-κB-driven secreted alkaline phosphatase reporter; 18 h", "procedure": "Test compounds serially diluted in DMSO were plated in an assay plate (Labcyte, Cat. #LP-0200) at final concentrations ranging from 0.004 μM to 25 μM. TNFα (final concentration 0.5 ng/ml) or CD40L (final concentration 30 ng/ml) in assay buffer [DMEM, 4.5 g/l glucose (Gibco, Cat. 21063-029), 10% FBS (Sigma, F4135), 1% Penicillin-Streptomycin (Gibco, Cat. 15140-122), 1% Anti-Anti (Gibco, Cat. 15240-112) and 2 mM L-glutamine (Gibco, Cat. 25030-081)] was then added to the assay plate. After a 30 minute pre-incubation at 37° C. and 5% CO2, HEK-Blue-CD40L cells (InvivoGen, Cat. Code hkb-cd40) containing a NF-κB-driven secreted alkaline phosphatase reporter gene were seeded into the assay plate at a density of 20,000 cells per well. This plate was then incubated for 18 h at 37° C. and 5% CO2. Secreted alkaline phosphatase expression was measured using QUANTI-Blue (InvivoGen, Cat. Code rep-qb1) according to manufacturer's specifications and the assay plate was read on a PerkinElmer Envision at 620 nm.\nInhibition data for the test compound over a range of concentrations was plotted as percentage inhibition of the test compound (100%=maximum inhibition). IC50 values were determined after correcting for background [(sample read−mean of low control)/(mean of high control−mean of low control)] where by the low control is DMSO without stimulation and high control is DMSO with stimulation. The IC50 is defined as the concentration of test compound which produces 50% inhibition and was quantified using the 4 parameter logistic equation to fit the data.\nTable 5 lists the IC50 values measured in the TNF induced HEK-Blue assay for Examples 1 to 40 of this invention.", "units": {"IC50": "nM"}, "values": [{"molecule": "CC(C)(O)c1ccc(-c2ccc3nc4n(c3n2)C(c2ccccc2C(F)(F)F)CC4)cc1", "note": "(racemic) [Example 25 (rac), 2-(4-(8-(2-(Trifluoromethyl)phenyl)-7,8-dihydro-6H-pyrrolo[2′,1′:2,3]imidazo[4,5-b]pyridin-2-yl)phenyl)propan-2-ol]", "IC50": "< 1000"}, {"molecule": "CC(C)(O)c1ccc(-c2ccc3nc4n(c3n2)C(c2ccccc2OC(F)F)CC4)cc1", "note": "(racemic) [Example 26 (rac), 2-(4-(8-(2-(difluoromethoxy)phenyl)-7,8-dihydro-6H-pyrrolo[2′,1′:2,3]imidazo[4,5-b]pyridin-2-yl)phenyl)propan-2-ol]", "IC50": "< 1000"}, {"molecule": "CC(C)(O)c1ncc(-c2ccc3nc4n(c3n2)C(c2ccccc2OC(F)F)CC4)cn1", "note": "(racemic) [Example 27 (rac), 2-(5-(8-(2-(difluoromethoxy)phenyl)-7,8-dihydro-6H-pyrrolo[2′,1′:2,3]imidazo[4,5-b]pyridin-2-yl)pyrimidin-2-yl)propan-2-ol]", "IC50": "< 1000"}, {"molecule": "FC(F)Oc1ccccc1C1CCc2nc3ccc(-c4cnc(N5CCOCC5)nc4)nc3n21", "note": "(racemic) [Example 28 (rac), 4-(5-(8-(2-(difluoromethoxy)phenyl)-7,8-dihydro-6H-pyrrolo[2′,1′:2,3]imidazo[4,5-b]pyridin-2-yl)pyrimidin-2-yl)morpholine]", "IC50": "< 1000"}, {"molecule": "COc1ccc(-c2ccc3nc4n(c3n2)C(c2ccccc2OC(F)F)CC4)cn1", "note": "(racemic) [Example 29 (rac), 8-(2-(difluoromethoxy)phenyl)-2-(6-methoxypyridin-3-yl)-7,8-dihydro-6H-pyrrolo[2′,1′:2,3]imidazo[4,5-b]pyridine]", "IC50": "1000 to 10000"}, {"molecule": "Cn1cc(-c2ccc3nc4n(c3n2)C(c2ccccc2OC(F)F)CC4)cn1", "note": "(racemic) [Example 30 (rac), 8-(2-(difluoromethoxy)phenyl)-2-(1-methyl-1H-pyrazol-4-yl)-7,8-dihydro-6H-pyrrolo[2′,1′:2,3]imidazo[4,5-b]pyridine]", "IC50": "1000 to 10000"}, {"molecule": "CC(C)(O)c1ccc(-c2ccc3nc4n(c3n2)C(c2c(F)cccc2C(F)(F)F)CC4)cc1", "note": "(racemic) [Example 32 (e2), 2-(4-(8-(2-fluoro-6-(trifluoromethyl)phenyl)-7,8-dihydro-6H-pyrrolo[2′,1′:2,3]imidazo[4,5-b]pyridin-2-yl)phenyl)propan-2-ol]", "IC50": "< 1000"}, {"molecule": "CC(C)(O)c1ccc(-c2ccc3nc4n(c3n2)C(c2c(F)cccc2C(F)(F)F)CC4)cc1", "note": "(racemic) [Example 32 (rac), 2-(4-(8-(2-fluoro-6-(trifluoromethyl)phenyl)-7,8-dihydro-6H-pyrrolo[2′,1′:2,3]imidazo[4,5-b]pyridin-2-yl)phenyl)propan-2-ol]", "IC50": "< 1000"}, {"molecule": "CC(C)(O)c1ccc(-c2ccc3nc4n(c3n2)C(c2cc(F)ccc2C(F)(F)F)CC4)cc1", "note": "(racemic) [Example 34 (rac), 2-(4-(8-(5-fluoro-2-(trifluoromethyl)phenyl)-7,8-dihydro-6H-pyrrolo[2′,1′:2,3]imidazo[4,5-b]pyridin-2-yl)phenyl)propan-2-ol]", "IC50": "< 1000"}, {"molecule": "COc1ccccc1C1CCc2nc3ccc(-c4cnc(N5CCN(CC(=O)O)CC5)nc4)nc3n21", "note": "(racemic) [Example 35 (rac), 2-(4-(5-(8-(2-methoxyphenyl)-7,8-dihydro-6H-pyrrolo[2′,1′:2,3]imidazo[4,5-b]pyridin-2-yl)pyrimidin-2-yl)piperazin-1-yl)acetic acid]", "IC50": "1000 to 10000"}, {"molecule": "CC(C)(O)c1ccc(-c2ccc3nc4n(c3n2)C(c2ccccc2C(F)(F)F)CC4O)cc1", "note": "(single isomer, unassigned) [Example 1 (e1), 2-(4-(2-Hydroxypropan-2-yl)phenyl)-8-(2-(trifluoromethyl)phenyl)-7,8-dihydro-6H-pyrrolo[2′,1′:2,3]imidazo[4,5-b]pyridin-6-ol]", "IC50": "< 1000"}, {"molecule": "CC(C)(O)c1ccc(-c2ccc3nc4n(c3n2)C(c2ccccc2C(F)(F)F)CC4O)cc1", "note": "(single isomer, unassigned) [Example 1 (e2), 2-(4-(2-Hydroxypropan-2-yl)phenyl)-8-(2-(trifluoromethyl)phenyl)-7,8-dihydro-6H-pyrrolo[2′,1′:2,3]imidazo[4,5-b]pyridin-6-ol]", "IC50": "1000 to 10000"}, {"molecule": "CC(C)(O)c1ccc(-c2ccc3nc4n(c3n2)C(c2ccccc2C(F)(F)F)CC4O)cc1", "note": "(single isomer, unassigned) [Example 1 (e3), 2-(4-(2-Hydroxypropan-2-yl)phenyl)-8-(2-(trifluoromethyl)phenyl)-7,8-dihydro-6H-pyrrolo[2′,1′:2,3]imidazo[4,5-b]pyridin-6-ol]", "IC50": "1000 to 10000"}, {"molecule": "CC(C)(O)c1ccc(-c2ccc3nc4n(c3n2)C(c2ccccc2C(F)(F)F)CC4O)cc1", "note": "(single isomer, unassigned) [Example 1 (e4), 2-(4-(2-Hydroxypropan-2-yl)phenyl)-8-(2-(trifluoromethyl)phenyl)-7,8-dihydro-6H-pyrrolo[2′,1′:2,3]imidazo[4,5-b]pyridin-6-ol]", "IC50": "1000 to 10000"}, {"molecule": "CC(C)(O)c1ccc(-c2ccc3nc4n(c3n2)C(c2ccccc2OC(F)F)CC4O)cc1", "note": "(single isomer, unassigned) [Example 2 (e1), 8-(2-(difluoromethoxy)phenyl)-2-(4-(2-hydroxypropan-2-yl)phenyl)-7,8-dihydro-6H-pyrrolo[2′,1′:2,3]imidazo[4,5-b]pyridin-6-ol]", "IC50": "< 1000"}, {"molecule": "CC(C)(O)c1ccc(-c2ccc3nc4n(c3n2)C(c2ccccc2OC(F)F)CC4O)cc1", "note": "(single isomer, unassigned) [Example 2 (e2), 8-(2-(difluoromethoxy)phenyl)-2-(4-(2-hydroxypropan-2-yl)phenyl)-7,8-dihydro-6H-pyrrolo[2′,1′:2,3]imidazo[4,5-b]pyridin-6-ol]", "IC50": "1000 to 10000"}, {"molecule": "CC(C)(O)c1ccc(-c2ccc3nc4n(c3n2)C(c2ccccc2OC(F)F)CC4O)cc1", "note": "(single isomer, unassigned) [Example 2 (e3), 8-(2-(difluoromethoxy)phenyl)-2-(4-(2-hydroxypropan-2-yl)phenyl)-7,8-dihydro-6H-pyrrolo[2′,1′:2,3]imidazo[4,5-b]pyridin-6-ol]", "IC50": "1000 to 10000"}, {"molecule": "CC(C)(O)c1ccc(-c2ccc3nc4n(c3n2)C(c2ccccc2OC(F)F)CC4O)cc1", "note": "(single isomer, unassigned) [Example 2 (e4), 8-(2-(difluoromethoxy)phenyl)-2-(4-(2-hydroxypropan-2-yl)phenyl)-7,8-dihydro-6H-pyrrolo[2′,1′:2,3]imidazo[4,5-b]pyridin-6-ol]", "IC50": "1000 to 10000"}, {"molecule": "CC(C)(O)c1ccc(-c2ccc3nc4n(c3n2)C(c2c(F)cccc2C(F)(F)F)CC4O)cc1", "note": "(single isomer, unassigned) [Example 3 (e1), 8-(2-fluoro-6-(trifluoromethyl)phenyl)-2-(4-(2-hydroxypropan-2-yl)phenyl)-7,8-dihydro-6H-pyrrolo[2′,1′:2,3]imidazo[4,5-b]pyridin-6-ol]", "IC50": "< 1000"}, {"molecule": "CC(C)(O)c1ccc(-c2ccc3nc4n(c3n2)C(c2c(F)cccc2C(F)(F)F)CC4O)cc1", "note": "(single isomer, unassigned) [Example 3 (e2), 8-(2-fluoro-6-(trifluoromethyl)phenyl)-2-(4-(2-hydroxypropan-2-yl)phenyl)-7,8-dihydro-6H-pyrrolo[2′,1′:2,3]imidazo[4,5-b]pyridin-6-ol]", "IC50": "< 1000"}, {"molecule": "CC(C)(O)c1ccc(-c2ccc3nc4n(c3n2)C(c2c(F)cccc2C(F)(F)F)CC4O)cc1", "note": "(single isomer, unassigned) [Example 3 (e3), 8-(2-fluoro-6-(trifluoromethyl)phenyl)-2-(4-(2-hydroxypropan-2-yl)phenyl)-7,8-dihydro-6H-pyrrolo[2′,1′:2,3]imidazo[4,5-b]pyridin-6-ol]", "IC50": "< 1000"}, {"molecule": "CC(C)(O)c1ccc(-c2ccc3nc4n(c3n2)C(c2ccccc2C2CC2)CC4O)cc1", "note": "(single isomer, unassigned) [Example 9 (e3), 8-(2-cyclopropylphenyl)-2-(4-(2-hydroxypropan-2-yl)phenyl)-7,8-dihydro-6H-pyrrolo[2′,1′:2,3]imidazo[4,5-b]pyridin-6-ol]", "IC50": "1000 to 10000"}, {"molecule": "CC(C)(O)c1ccc(-c2ccc3nc4n(c3n2)C(c2ccccc2C2CC2)CC4O)cc1", "note": "(single isomer, unassigned) [Example 9 (e4), 8-(2-cyclopropylphenyl)-2-(4-(2-hydroxypropan-2-yl)phenyl)-7,8-dihydro-6H-pyrrolo[2′,1′:2,3]imidazo[4,5-b]pyridin-6-ol]", "IC50": "1000 to 10000"}, {"molecule": "COc1ccccc1C1CC(O)c2nc3ccc(-c4ccc(C(C)(C)O)cc4)nc3n21", "note": "(single isomer, unassigned) [Example 12 (e2), 2-(4-(2-hydroxypropan-2-yl)phenyl)-8-(2-methoxyphenyl)-7,8-dihydro-6H-pyrrolo[2′,1′:2,3]imidazo[4,5-b]pyridin-6-ol]", "IC50": "1000 to 10000"}, {"molecule": "COc1ccccc1C1CC(O)c2nc3ccc(-c4ccc(C(C)(C)O)cc4)nc3n21", "note": "(single isomer, unassigned) [Example 12 (e3), 2-(4-(2-hydroxypropan-2-yl)phenyl)-8-(2-methoxyphenyl)-7,8-dihydro-6H-pyrrolo[2′,1′:2,3]imidazo[4,5-b]pyridin-6-ol]", "IC50": "10000 to 25000"}]}]}
